Assay results taken from US9309285B2, “Macrocyclic broad spectrum antibiotics” (priority 2012, dated 2016).
Like-named read-outs stand apart in the source and are kept apart here.

Tests used:
S. aureus SPase = target: T1, S. aureus SPase (Staphylococcus aureus, UniProt P0A070); experiment: SPase enzyme inhibition assay, fluorogenic peptide substrate, S. aureus; format: biochemical
T1 construct: Full length His-tagged E. coli and S. aureus SPase proteins were expressed in E. coli BL21; His tag; made in house; host or cells: E. coli BL21 (DE3)
T1 sequence (P0A070 1-191): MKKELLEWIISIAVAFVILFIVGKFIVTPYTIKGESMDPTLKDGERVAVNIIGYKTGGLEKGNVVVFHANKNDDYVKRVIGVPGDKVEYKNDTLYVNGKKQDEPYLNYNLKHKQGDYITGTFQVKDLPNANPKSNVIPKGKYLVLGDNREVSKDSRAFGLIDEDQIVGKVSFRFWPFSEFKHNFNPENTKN
Protocol: (§1) Briefly, for expression of E. coli SPase, saturated overnight cultures grown in 20 ml of Luria-Bertani medium supplemented with ampicillin were subcultures into 1.5 L of Luria-Bertani, and shaken at 37° C. until an optical density at 600 nm of 0.4-0.5 was achieved. […] S. aureus SPase was expressed and purified similarly, with the following exceptions. […] Resin bound protein was washed in a similar buffer containing 1% Elugent in place of Triton X-100 prior to protein elution in wash buffer supplemented with 300 mM imidazole. […] All protein concentrations were determined by BCA assay.
(§2) Enzyme master solution was prepared by diluting Escherichia coli or Staphylococcus aureus SPase protein into reaction buffer to a final concentration of 3 nM or 10 nM respectively. Reaction buffer consisted of 20 mM NaKHPO4 pH 7.4, 100 mM NaCl, and 1% v/v Elugent™ detergent. Reactions were initiated by the addition of substrate to a final concentration of 20 μM. Reaction progress was monitored by measuring the increase in fluorescence signal (excitation at 314 nm, emission at 416 nm) using a SpectraMax M2 fluorescence microplate reader. […] Three-folder serial dilutions of test compounds, starting at 10 μM, were prepared in enzyme mix solution and incubated at room temperature for 10 minutes. Following this incubation, fluorogenic substrate was added to a final concentration of 20 μM and the increase in fluorescence, corresponding to substrate cleavage, was monitored continuously at room temperature for 1 hour. Initial reaction rates were calculated based on the rate of increase in fluorescence during the reaction. Reaction rates were plotted as a function of compound concentration, and IC50 values were determined nonlinear regression analysis (SoftMaxPro 5.4, Molecular Devices™) of the sigmoidal dose-response curve.

E. coli SPase = target: T2, E. coli SPase (Escherichia coli, UniProt P00803); experiment: SPase enzyme inhibition assay, fluorogenic peptide substrate, E. coli; format: biochemical
T2 construct: Full length His-tagged E. coli and S. aureus SPase proteins were expressed in E. coli BL21; His tag; made in house; host or cells: E. coli BL21 (DE3)
Protocol: as §1, §2

[1] = test system: Methicillin Resistant Staphylococcus aureus strain USA 300 (NRS384); experiment: MIC by broth micro-dilution (CLSI), S. aureus; format: cell-based; details: MRSA USA 300 (NRS384), cation adjusted Mueller Hinton Broth + 0.002% Tween-80, 35° C., 22 hours; for MIC: Staphylococcus aureus, MRSA / NRS 384 / USA300, read-out: MIC (μg/mL) S. aureus
Protocol: (§3) In vitro antimicrobial activity of each compound was determined by measuring minimal inhibitor concentrations (MICs) using the broth micro-dilution technique as approved by the Clinical and Laboratory Standards Institute (CLSI) (Methods for Dilution Antimicrobial Susceptibility Tests for Bacteria that Grow Aerobically; Approved Standard—Eighth Edition. CLSI document M07-A8. Wayne, Pa.: Clinical and Laboratroy Standards; 2009). Antibacterial activity was measure against two strains of bacteria: a Methicillin Resistant Staphylococcus aureus strain USA 300 (NRS384) and a strain of Escherichia coli MC4100 harboring the IMP4213, which results in increased outer-membrane permeability (B Martin and Silhavy T. Imp/OstA is required for cell envelope biogenesis in Escherichia coli. (2002) Molecular Microbiology, 45(5), 1289-1302). Cells were inoculated onto plates of Trypyticase Soy Agar or Luria Agar respectively and grown at 35° C. for 20 hours. Inocula suspensions were prepared by scraping cells into 1 ml of testing media (cation adjusted Mueller Hinton Broth supplemented with 0.002% v/v Tween-80) and diluting to a final OD600 nm of 0.01.
Test compounds were prepared in DMSO at a concentration of 10 mg/ml. These compound stocks were diluted into testing media at a concentration of 64 μg/ml and serial 2-fold dilutions were made in the same media, in 96-well U bottom microtiter dishes, for a total of 10 compound concentrations. Inocula suspensions were added to the 2-fold serial dilutions of test compounds to a final density of OD OD600 nm of 0.0005 and incubated at 35° C. for 22 hours.

[2] = test system: Escherichia coli MC4100 harboring the IMP4213; experiment: MIC by broth micro-dilution (CLSI), E. coli; format: cell-based; details: E. coli MC4100 IMP4213 (increased outer-membrane permeability); cation adjusted Mueller Hinton Broth + 0.002% Tween-80; 35° C., 22 hours
Protocol: as §3
Test compounds were prepared in DMSO at a concentration of 10 mg/ml. […]

[3] = 3 nM E. coli SPase, 20 μM substrate, 10 minutes pre-incubation, room temperature, read-out: IC 50 (nM) E. coli
[4] = read-out: IC 50 (nM) S. aureus, 10 nM S. aureus SPase, 20 μM substrate, 10 minutes pre-incubation, room temperature

T2 sequence (P00803 whole entry): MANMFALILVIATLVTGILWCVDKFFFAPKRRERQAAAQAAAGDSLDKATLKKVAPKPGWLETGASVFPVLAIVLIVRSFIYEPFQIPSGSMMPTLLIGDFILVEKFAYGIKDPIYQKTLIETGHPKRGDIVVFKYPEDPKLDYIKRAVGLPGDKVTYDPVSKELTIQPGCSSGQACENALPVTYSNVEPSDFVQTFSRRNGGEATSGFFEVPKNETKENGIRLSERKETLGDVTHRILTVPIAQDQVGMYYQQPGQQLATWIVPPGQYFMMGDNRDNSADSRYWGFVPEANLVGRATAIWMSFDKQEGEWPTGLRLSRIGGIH

SMILES | IC50 (S. aureus SPase; 10 nM S. aureus SPase, 20 μM substrate, 10 minutes pre-incubation, room temperature, read-out: IC 50 (nM) S. aureus) [nM] | IC50 (E. coli SPase; [3]) [nM] | MIC (μg/mL) S. aureus [1] [µg/mL] | MIC (μg/mL) E. coli [2] [µg/mL] | IC50 (S. aureus SPase) [nM] | MIC [1] [µg/mL] | IC50 (E. coli SPase) [nM] | IC50 (S. aureus SPase; [4]) [nM]
CCCCc1ccc(-c2ccc(C(=O)NCC(C)C(=O)N[C@@H](CCN)C(=O)N(C)[C@@H]3C(=O)N[C@@H](C)C(=O)N[C@H](C(=O)O)Cc4ccc(O)c(c4)-c4cc3ccc4O)cc2)cc1 (single isomer, unassigned) [Compound 115] | 1900 | 630 | 64 | >64 |  |  |  | 
CCCCc1ccc(-c2ccc(C(=O)NC[C@@H](C)C(=O)N[C@@H](CCCCN)C(=O)N(C)[C@@H]3C(=O)N[C@@H](C)C(=O)N[C@H](C(=O)O)Cc4ccc(O)c(c4)-c4cc3ccc4O)cc2)cc1 [Compound 103] |  | 1.3 |  |  | 8 | 2.1 |  | 
CCCCCCCCCCCCCC(=O)NCCC(=O)N[C@@H](CCCCN)C(=O)N(C)[C@@H]1C(=O)N[C@@H](C)C(=O)N[C@H](C(=O)O)Cc2ccc(O)c(c2)-c2cc1ccc2O [Compound 105] |  | 1.3 |  |  | 16 | 0.63 |  | 
CCCCc1ccc(-c2ccc(C(=O)NC(C)CC(=O)N[C@@H](CCCCN)C(=O)N(C)[C@@H]3C(=O)N[C@@H](C)C(=O)N[C@H](C(=O)O)Cc4ccc(O)c(c4)-c4cc3ccc4O)cc2)cc1 (stereo partly shown) [Compound 106] |  | 2.9 |  |  | 8.8 | 2 |  | 
CCCCc1ccc(-c2ccc(C(=O)N[C@@H](C)CC(=O)N[C@@H](CCCCN)C(=O)N(C)[C@@H]3C(=O)N[C@@H](C)C(=O)N[C@H](C(=O)O)Cc4ccc(O)c(c4)-c4cc3ccc4O)cc2)cc1 [Compound 107] |  | 0.6 |  |  | 2.6 | 11 |  | 
CCCCc1ccc(-c2ccc(C(=O)NCC(=O)N[C@@H](CCCCN)C(=O)N(C)[C@@H]3C(=O)N[C@@H](C)C(=O)N[C@H](C(=O)O)Cc4ccc(O)c(c4)-c4cc3ccc4O)cc2)cc1 [Compound 108] |  | 2.4 |  |  | 110 | 8 |  | 
CCCCc1ccc(-c2ccc(C(=O)NC[C@@H](N)C(=O)N[C@@H](CCCCN)C(=O)N(C)[C@@H]3C(=O)N[C@@H](C)C(=O)N[C@H](C(=O)O)Cc4ccc(O)c(c4)-c4cc3ccc4O)cc2)cc1 [Compound 109] |  | 11 |  |  | 15 | > 64 |  | 
CCCCc1ccc(-c2ccc(C(=O)NCCC(=O)N(C)[C@@H]3C(=O)N[C@@H](C)C(=O)N[C@H](C(=O)O)Cc4ccc(O)c(c4)-c4cc3ccc4O)cc2)cc1 [Compound 112] |  | 850 |  |  | 7200 | > 64 |  | 
CCCCc1ccc(-c2ccc(C(=O)NCC(C)C(=O)N[C@@H](CCCN)C(=O)N(C)[C@@H]3C(=O)N[C@@H](C)C(=O)N[C@H](C(=O)O)Cc4ccc(O)c(c4)-c4cc3ccc4O)cc2)cc1 (stereo partly shown) [Compound 113] |  | 3.6 |  |  | 69 | 4 |  | 
CCCCc1ccc(-c2ccc(C(=O)N(C)[C@@H]3C(=O)N[C@@H](C)C(=O)N[C@H](C(=O)O)Cc4ccc(O)c(c4)-c4cc3ccc4O)cc2)cc1 [Compound 116] |  | > 10000 |  |  | > 10000 | > 64 |  | 
CCCCc1ccc(-c2ccc(C(=O)N[C@@H](CCCCN)C(=O)NCCC(=O)N(C)[C@@H]3C(=O)N[C@@H](C)C(=O)N[C@H](C(=O)O)Cc4ccc(O)c(c4)-c4cc3ccc4O)cc2)cc1 [Compound 117] |  | 760 |  |  | 3900 | > 64 |  | 
CCCCc1ccc(-c2ccc(C(=O)N[C@@H](CCCCN)C(=O)N(C)[C@@H]3C(=O)N[C@@H](C)C(=O)N[C@H](C(=O)N[C@@H](C)B4O[C@@H]5C[C@@H]6C[C@@H](C6(C)C)[C@]5(C)O4)Cc4ccc(O)c(c4)-c4cc3ccc4O)cc2)cc1 [Compound 121] |  | 29 |  |  | 110 | 0.71 |  | 
CCCCCCCC(=O)NCCC(=O)N[C@@H](CCCCN)C(=O)N(C)[C@@H]1C(=O)N[C@@H](C)C(=O)N[C@H](C(=O)N[C@@H](C)B2O[C@@H]3C[C@@H]4C[C@@H](C4(C)C)[C@]3(C)O2)Cc2ccc(O)c(c2)-c2cc1ccc2O [Compound 123] |  | 20 |  |  | 18 | 64 |  | 
CCCCCCCC(=O)N[C@@H](CCCCN)C(=O)N(C)[C@@H]1C(=O)N[C@@H](C)C(=O)N[C@H](C(=O)N[C@@H](C)B2O[C@@H]3C[C@@H]4C[C@@H](C4(C)C)[C@]3(C)O2)Cc2ccc(O)c(c2)-c2cc1ccc2O [Compound 125] |  | 26 |  |  | 64 | 23 |  | 
CCCCCCCC(=O)N[C@@H](CCCCN)C(=O)N(C)[C@@H]1C(=O)N[C@@H](C)C(=O)N[C@H](C(=O)NCB2O[C@@H]3C[C@@H]4C[C@@H](C4(C)C)[C@]3(C)O2)Cc2ccc(O)c(c2)-c2cc1ccc2O [Compound 126] |  |  |  |  | 130 | 32 | 13 | 
C[C@@H]1NC(=O)[C@@H](N(C)C(=O)[C@H](CCCCN)NC(=O)c2ccc(-c3ccc(Cl)cc3)cc2)c2ccc(O)c(c2)-c2cc(ccc2O)C[C@@H](C(=O)N[C@@H](C)C(=O)N2CCC[C@H]2C(N)=O)NC1=O [Compound 132] |  |  |  |  | 5.9 | 6.1 | 26 | 
C[C@@H]1NC(=O)[C@@H](N(C)C(=O)[C@H](CCCCN)NC(=O)c2ccc(-c3ccc(Cl)cc3)cc2)c2ccc(O)c(c2)-c2cc(ccc2O)C[C@@H](C(=O)N[C@@H](C)C=O)NC1=O [Compound 134] |  | 0.8 |  |  | 8.2 | 10 |  | 
CCCCc1ccc(-c2ccc(C(=O)N[C@@H](CCCCN)C(=O)N[C@H]3COCCCCC[C@@H](C(=O)N[C@@H](C)B4OC5C[C@@H]6C[C@@H](C6(C)C)[C@]5(C)O4)NC(=O)[C@H](C)NC3=O)cc2)cc1 (stereo partly shown) [Compound 204] |  | 25 |  |  |  | 1.4 |  | 250
CCCCc1ccc(-c2ccc(C(=O)N[C@@H](CCCCN)C(=O)N[C@H]3COCCCCC[C@@H](C(=O)N[C@@H](C)B(O)O)NC(=O)[C@H](C)NC3=O)cc2)cc1 [Compound 205] |  | 30 |  |  |  | 2.8 |  | 280
CCCCc1ccc(-c2ccc(C(=O)N[C@@H](CCCCN)C(=O)N[C@H]3COCCCCOCC[C@@H](C(=O)N[C@@H](C)B4O[C@@H]5C[C@@H]6C[C@@H](C6(C)C)[C@]5(C)O4)NC(=O)[C@H](C)NC3=O)cc2)cc1 [Compound 207] |  | 21 |  |  | 210 | 1.3 |  | 
CCCCc1ccc(-c2ccc(C(=O)N[C@@H](CCCCN)C(=O)N(C)[C@@H]3C(=O)N[C@@H](C)C(=O)N[C@H](C(=O)N[C@@H](C)B4O[C@@H]5C[C@@H]6C[C@@H](C6(C)C)[C@]5(C)O4)CCCCc4cc3ccc4OC)cc2)cc1 [Compound 209] |  |  |  |  | 3700 | 4 | 84 | 
